In patent US7338976B1, “Heterocyclic esters or amides for vision and memory disorders” (GPI NIL Holdings, Inc., priority 1998, dated 2008):

Tests used:
RT97 + RGC axons = test: Protection of retinal ganglion cell axons from degeneration following optic nerve transection (Table VIII); type: in vivo; conditions: ± SEM
Description: Efficacy of representative compounds from different immunophilin ligand series in protecting retinal ganglion cell axons from degeneration following optic nerve transection is set forth in Table VIII

[1] = test system: retinal ganglion cells and their axons; test: Example 15: optic nerve transection, 28 days GPI-1046, sacrifice at 90 days; type: in vivo, Sprague Dawley rats; conditions: 10 mg/kg/day s.c. for 28 days; 90 days after transection; RT97
Description: Transection of the mammalian optic nerve results in a brief period of abortive regeneration, but the majority of axotomized neurons die and the axons from many persisting ganglion cells die back beyond the optic nerve head.

[2] = test system: retinal ganglion cells, optic nerve axons and myelin; test: Retinal ischemia (intraocular pressure raised above arterial pressure), examined 28 days later; type: in vivo, adult rats
Description: Retinal ganglion cells were retrogradely labeled in adult rats by bilateral injection of fluorogold in their lateral geniculate nuclei. Labeled ganglion cells in the normal rat retina appear as white profiles against the dark background (FIG. 1A). Complete retinal ischemia was produced by infusing normal saline solution into the retinal vitreous cavity of each eye until the intraocular pressure exceeded arterial blood pressure. 28 days after the ischemic episode extensive degeneration of retinal ganglion cell was evidenced by massive reduction in the density of fluorogold labeled cells (FIG. 1B).
Optic nerves from vehicle treated cases examined 28 days after a 1 hour retinal ischemic episode are characterized by a decreased density of optic nerve axons and the appearance of numerous degenerating myelin figures (bright white filled circles).

[3] = test system: retinal ganglion cells and optic nerve axons; test: Optic nerve transection vision loss model, 14 or 28 day treatment, sacrifice 90 days after transection; type: in vivo, Sprague Dawley rats; conditions: 28 days treatment; 90 days after ONT; cross sectional area × myelin density
Description: All eyes and optic nerves stumps were removed.

[4] = test system: retina (INL, GCL, ONL, OPL, PR); test: Streptozotocin induced diabetes: retinal neovascularization and neuron loss; type: in vivo; conditions: 28 day treatment beginning 8 weeks after onset of streptozotocin diabetes
[5] = Clearance (Table VIII comments); type: in vitro ADME

| Structure (SMILES) | RT97 +RGC axon density 14 days after ON transection (% ON axons rescued) (RT97 + RGC axons) | also measured |
| --- | --- | --- |
| CCC(C)(C)C(=O)C(=O)N1CCCC[C@H]1C(=O)O [G] | 34.0%±4.8% SEM |  |
| O=C(OCCCc1cccnc1)[C@@H]1CCCN1C(=S)NC1CCCCC1 [I] | 23.8%±5.3 SEM |  |
| CCC(C)(C)C(=O)C(=O)N1CCC[C@H]1C(=O)OCCCc1cccnc1 [GPI 1046, 3-(3-pyridyl)-1-propyl (2s)-1-(3,3-dimethyl-1,2-dioxopentyl)-2-pyrrolidinecarboxylate] | 60.5%±3.9 SEM | preservation of axons in the proximal stump [1]: preserved the axons of virtually all protected neurons; protection of retinal ganglion cells after retinal ischemia ([2]; 10 mg/kg s.c. 1 hour prior and 10 mg/kg/day for next four days, 28 days after ischemia, fluorogold labeled cells): noticeable protection of a large proportion of the vulnerable ganglion cell population; protection of optic nerve axons after retinal ischemia ([2]; same cases, toluidine blue staining, 28 days after 1 hour ischemia): protected the majority of optic nerve exons from degeneration; Distal optic nerve myelin basic protein Density: myelin preservation [3]: ~99 % myelin preservation; neovascularization in PR, ONL, OPL and INL [4]: reduced neovascularization |
| CCC(C)(C)C(=O)C(=O)N1CCC[C@H]1C(=O)O [L] | 7.8%±3.0% SEM | Clearance [5]: 12.5 µL/min |
| CCC(C)(C)C(=O)C(=O)N1CCC[C@H]1C(=O)CCCCc1cccnc1 [J] | 15.8%±4.8% SEM |  |
| O=C(SCCCc1ccccc1)[C@@H]1CCCN1S(=O)(=O)Cc1ccccc1 [C] | 60.4%±3.1% SEM |  |
| CCC(C)(C)C(=O)C(=O)N1CCCC[C@H]1C(N)=O [H] | 30.3%±8.0% SEM |  |
| O=C(SCCCc1ccccc1)[C@@H]1CCCN1C(=O)NC12CC3CC(CC(C3)C1)C2 [B] | 100.0%±5.2% SEM |  |
| CCC(C)(C)C(=O)C(=O)N1CCC[C@H]1C(=O)SCCC(c1ccccc1)c1ccccc1 [M] | −6.3%+3.9% SEM |  |
